Measured values as given in patent publication US7704948B2, “Pharmaceutical composition” (Euro-Celtique S.A., priority 2001, dated 2010).

Experiments:
[1] = Stability of bisacodyl in poloxamer melt; assay type: physicochemical; details: hot melt of bisacodyl and poloxamer
Text: Such a product will have advantages with regard to dosage form and other properties. […] Furthermore production scale enteric coating of capsules containing a low melting point, waxy, solid is very difficult due to melting and leakage or softening and deformation of the waxy, low melting point poloxamer.

[2] = cited from earlier work

- stability of bisacodyl in poloxamer [1]: unstable in poloxamer
Structure (SMILES): CC(=O)Oc1ccc(C(c2ccc(OC(C)=O)cc2)c2ccccn2)cc1 [Bisacodyl]
- time to action in the large intestine ([2]; following oral administration): 6 to 12 h
- onset of action ([2]; suppositories): 20 to 60 min
